Assay results as given in patent US20130116263A1, “PAK INHIBITORS FOR THE TREATMENT OF CELL PROLIFERATIVE DISORDERS” (AFRAXIS, INC., priority 2011, published 2013).

Biological target: PAK4 (Homo sapiens, UniProt O96013)
Assay: In vitro PAK inhibition assay (Z'-LYTE, SelectScreen), PAK4
Type: biochemical
Conditions: not given
Procedure: (§1) Compounds are screened in 1% DMSO (final) in the well. For 10 point titrations, 3-fold serial dilutions are conducted. All Peptide/Kinase Mixtures are diluted to a 2× working concentration in the appropriate Kinase Buffer
The 2×PAK-4/Ser/Thr 20 mixture is prepared in 50 mM HEPES pH 7.5, 0.01% BRIJ-35, 10 mM MgCl2, 1 mM EGTA. The final 10 μL Kinase Reaction consists of 0.1-0.75 ng PAK-4 and 2 μM Ser/Thr 20 in 50 mM HEPES pH 7.5, 0.01% BRIJ-35, 10 mM MgCl2, 1 mM EGTA. After the 1 hour Kinase Reaction incubation, 5 μL of a 1:256 dilution of Development Reagent A is added.
(§2) 1. Add the following solutions to a well in a 384-well plate: • 2.5 μL of 4× Test Compound OR (100 nL 100× Test Compound plus 2.4 μL kinase buffer) • 5 μL of 2× Peptide/Kinase (PAK) Mixture • 2.5 μL of 4×ATP Solution
(§3) 3. Incubate the PAK Kinase Reaction at room temperature for 60-minutes
(§4) 4. Add 5 μL of Development Reagent Solution to each well
(§5) 6. Incubate the Development Reaction for 60-minutes
(§6) 7. Determine the fluorescence using a fluorescence plate reader
SelectScreen® Kinase Profiling Service uses XLfit from IDBS. The dose response curve is curve fit to model number 205 (sigmoidal dose-response model).
The table below provides specifications and data around each kinase. The representative IC50 value with a known inhibitor for each kinase was determined at the ATP bin nearest to the ATP Km app.

PAK4, sequence (O96013 whole entry): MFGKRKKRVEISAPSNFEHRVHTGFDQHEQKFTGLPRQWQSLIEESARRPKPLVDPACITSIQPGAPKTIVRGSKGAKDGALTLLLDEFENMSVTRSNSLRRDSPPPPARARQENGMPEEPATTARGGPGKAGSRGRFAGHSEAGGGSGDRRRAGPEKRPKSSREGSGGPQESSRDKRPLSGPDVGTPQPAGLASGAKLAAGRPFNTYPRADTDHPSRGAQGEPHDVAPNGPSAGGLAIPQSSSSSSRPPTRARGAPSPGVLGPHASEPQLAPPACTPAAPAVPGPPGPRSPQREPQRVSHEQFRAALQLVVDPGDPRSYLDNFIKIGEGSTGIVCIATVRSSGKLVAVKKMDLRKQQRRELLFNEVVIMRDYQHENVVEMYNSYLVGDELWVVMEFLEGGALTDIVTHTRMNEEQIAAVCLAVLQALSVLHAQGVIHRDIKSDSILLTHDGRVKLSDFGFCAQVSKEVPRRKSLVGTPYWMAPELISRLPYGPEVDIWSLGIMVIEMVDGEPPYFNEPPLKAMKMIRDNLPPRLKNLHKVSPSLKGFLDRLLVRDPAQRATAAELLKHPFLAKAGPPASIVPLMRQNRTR

Row | SMILES | IC50
1 | O=c1c(-c2ccc(-c3ccncn3)cc2Cl)cc2cnc(NC3CCOCC3)nc2n1Cc1ccccc1C(F)(F)F [Example 23] | > 5000 nM
2 | CCn1c(=O)c(-c2ccc(-c3cncc(C)n3)cc2Cl)cc2cnc(N[C@H]3CCCNC3=O)nc21 [Example 69] | > 5000 nM
3 | CCn1c(=O)c(-c2ccc(-c3cccnc3F)cc2Cl)cc2cnc(N[C@@H]3CCOC3)nc21 [Example 40] | > 5000 nM
4 | Cc1cncc(-c2ccc(-c3cc4cnc(N[C@H]5CCOC5)nc4n([C@H]4CC[C@H](N)CC4)c3=O)c(Cl)c2)n1 [Example 110] | > 5000 nM
5 | CCn1c(=O)c(-c2ccc(-c3nccnc3C)cc2Cl)cc2cnc(NC3CCN(C(C)=O)CC3)nc21 [Example 80] | > 5000 nM
6 | CCn1c(=O)c(-c2ccc(-c3cncc(C)n3)cc2Cl)cc2cnc(NCCCOCCCN(C)C)nc21 [Example 130] | > 5000 nM
7 | CCn1c(=O)c(-c2ccc(-c3nccnc3C)cc2Cl)cc2cnc(NC3CCCNC3)nc21 (stereo not drawn) [Example 82] | > 5000 nM
8 | COCCn1c(=O)c(-c2ccc(-c3cnccn3)cc2Cl)cc2cnc(NC3CCOC3)nc21 (stereo not drawn) [Example 53] | > 5000 nM
9 | CCn1c(=O)c(-c2ccc(-c3nccnc3C)cc2Cl)cc2cnc(NC3CCN(C)CC3)nc21 [Example 5] | > 5000 nM

Biological target: PAK3 (Homo sapiens, UniProt O75914)
Sequence (O75914 1-544 isoform O75914-2): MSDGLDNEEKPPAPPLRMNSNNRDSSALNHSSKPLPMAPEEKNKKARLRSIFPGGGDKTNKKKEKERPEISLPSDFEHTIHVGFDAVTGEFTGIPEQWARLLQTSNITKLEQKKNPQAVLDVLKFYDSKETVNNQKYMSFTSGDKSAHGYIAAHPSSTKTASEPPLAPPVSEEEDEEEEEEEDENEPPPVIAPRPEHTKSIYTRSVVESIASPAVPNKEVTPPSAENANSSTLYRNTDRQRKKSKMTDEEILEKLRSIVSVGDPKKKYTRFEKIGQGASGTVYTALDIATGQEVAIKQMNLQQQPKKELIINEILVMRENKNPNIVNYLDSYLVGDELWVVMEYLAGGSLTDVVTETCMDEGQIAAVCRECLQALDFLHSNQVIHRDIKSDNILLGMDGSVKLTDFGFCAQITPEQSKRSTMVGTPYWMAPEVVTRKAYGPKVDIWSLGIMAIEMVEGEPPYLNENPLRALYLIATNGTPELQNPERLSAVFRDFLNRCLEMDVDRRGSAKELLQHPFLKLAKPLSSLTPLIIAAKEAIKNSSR
Assay: In vitro PAK inhibition assay (Z'-LYTE, SelectScreen), PAK3
Type: biochemical
Conditions: read-out: PAK3 IC50
Procedure: as §1
The 2×PAK3/Ser/Thr 20 mixture is prepared in 50 mM HEPES pH 7.5, 0.01% BRIJ-35, 10 mM MgCl2, 1 mM EGTA.
as §2, §3, §4, §5, §6
(§7) SelectScreen® Kinase Profiling Service uses XLfit from IDBS.
(§8) The representative IC50 value with a known inhibitor for each kinase was determined at the ATP bin nearest to the ATP Km app.

Row | SMILES | IC50
10 | O=c1c(-c2ccc(-c3ccncn3)cc2Cl)cc2cnc(NC3CCOCC3)nc2n1Cc1ccccc1C(F)(F)F [Example 23] | 50 to 500 nM
11 | CCn1c(=O)c(-c2ccc(-c3cncc(C)n3)cc2Cl)cc2cnc(N[C@H]3CCCNC3=O)nc21 [Example 69] | > 5000 nM
12 | CCn1c(=O)c(-c2ccc(-c3cccnc3F)cc2Cl)cc2cnc(N[C@@H]3CCOC3)nc21 [Example 40] | 50 to 500 nM
13 | Cc1cncc(-c2ccc(-c3cc4cnc(N[C@H]5CCOC5)nc4n([C@H]4CC[C@H](N)CC4)c3=O)c(Cl)c2)n1 [Example 110] | < 50 nM
14 | CCn1c(=O)c(-c2ccc(-c3nccnc3C)cc2Cl)cc2cnc(NC3CCN(C(C)=O)CC3)nc21 [Example 80] | 500 to 5000 nM
15 | CCn1c(=O)c(-c2ccc(-c3cncc(C)n3)cc2Cl)cc2cnc(NCCCOCCCN(C)C)nc21 [Example 130] | 50 to 500 nM
16 | CCn1c(=O)c(-c2ccc(-c3nccnc3C)cc2Cl)cc2cnc(NC3CCCNC3)nc21 (stereo not drawn) [Example 82] | 500 to 5000 nM
17 | COCCn1c(=O)c(-c2ccc(-c3cnccn3)cc2Cl)cc2cnc(NC3CCOC3)nc21 (stereo not drawn) [Example 53] | 500 to 5000 nM
18 | CCn1c(=O)c(-c2ccc(-c3nccnc3C)cc2Cl)cc2cnc(NC3CCN(C)CC3)nc21 [Example 5] | 500 to 5000 nM

Biological target: PAK1 (Homo sapiens, UniProt Q13153)
Sequence (Q13153 whole entry): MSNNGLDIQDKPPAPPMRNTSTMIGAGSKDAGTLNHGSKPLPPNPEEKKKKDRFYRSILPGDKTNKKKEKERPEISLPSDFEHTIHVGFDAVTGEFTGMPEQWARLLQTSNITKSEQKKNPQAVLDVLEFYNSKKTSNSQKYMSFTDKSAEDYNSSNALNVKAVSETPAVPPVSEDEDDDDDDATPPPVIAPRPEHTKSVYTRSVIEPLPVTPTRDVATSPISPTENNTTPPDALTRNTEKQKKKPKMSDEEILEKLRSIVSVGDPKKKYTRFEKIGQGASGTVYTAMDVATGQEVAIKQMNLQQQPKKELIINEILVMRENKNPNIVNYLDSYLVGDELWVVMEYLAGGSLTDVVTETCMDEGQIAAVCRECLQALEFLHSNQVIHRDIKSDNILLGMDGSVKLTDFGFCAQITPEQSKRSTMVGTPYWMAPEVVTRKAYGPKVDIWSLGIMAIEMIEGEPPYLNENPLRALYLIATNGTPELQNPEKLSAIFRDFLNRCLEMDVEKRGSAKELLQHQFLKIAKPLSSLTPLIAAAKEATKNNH
Assay: In vitro PAK inhibition assay (Z'-LYTE, SelectScreen), PAK1
Type: biochemical
Conditions: read-out: PAK1 IC50
Procedure: as §1
The 2×PAK1/Ser/Thr 19 mixture is prepared in 50 mM HEPES pH 7.5, 0.01% BRIJ-35, 10 mM MgCl2, 1 mM EGTA.
as §2, §3, §4, §5, §6, §7, §8

Row | SMILES | IC50
19 | O=c1c(-c2ccc(-c3ccncn3)cc2Cl)cc2cnc(NC3CCOCC3)nc2n1Cc1ccccc1C(F)(F)F [Example 23] | 50 to 500 nM
20 | CCn1c(=O)c(-c2ccc(-c3cncc(C)n3)cc2Cl)cc2cnc(N[C@H]3CCCNC3=O)nc21 [Example 69] | > 5000 nM
21 | CCn1c(=O)c(-c2ccc(-c3cccnc3F)cc2Cl)cc2cnc(N[C@@H]3CCOC3)nc21 [Example 40] | < 50 nM
22 | Cc1cncc(-c2ccc(-c3cc4cnc(N[C@H]5CCOC5)nc4n([C@H]4CC[C@H](N)CC4)c3=O)c(Cl)c2)n1 [Example 110] | < 50 nM
23 | CCn1c(=O)c(-c2ccc(-c3nccnc3C)cc2Cl)cc2cnc(NC3CCN(C(C)=O)CC3)nc21 [Example 80] | 500 to 5000 nM
24 | CCn1c(=O)c(-c2ccc(-c3cncc(C)n3)cc2Cl)cc2cnc(NCCCOCCCN(C)C)nc21 [Example 130] | 50 to 500 nM
25 | CCn1c(=O)c(-c2ccc(-c3nccnc3C)cc2Cl)cc2cnc(NC3CCCNC3)nc21 (stereo not drawn) [Example 82] | 50 to 500 nM
26 | COCCn1c(=O)c(-c2ccc(-c3cnccn3)cc2Cl)cc2cnc(NC3CCOC3)nc21 (stereo not drawn) [Example 53] | 50 to 500 nM
27 | CCn1c(=O)c(-c2ccc(-c3nccnc3C)cc2Cl)cc2cnc(NC3CCN(C)CC3)nc21 [Example 5] | 500 to 5000 nM

Biological target: PAK2 (PAK65) (Homo sapiens, UniProt Q13177)
Sequence (Q13177 whole entry): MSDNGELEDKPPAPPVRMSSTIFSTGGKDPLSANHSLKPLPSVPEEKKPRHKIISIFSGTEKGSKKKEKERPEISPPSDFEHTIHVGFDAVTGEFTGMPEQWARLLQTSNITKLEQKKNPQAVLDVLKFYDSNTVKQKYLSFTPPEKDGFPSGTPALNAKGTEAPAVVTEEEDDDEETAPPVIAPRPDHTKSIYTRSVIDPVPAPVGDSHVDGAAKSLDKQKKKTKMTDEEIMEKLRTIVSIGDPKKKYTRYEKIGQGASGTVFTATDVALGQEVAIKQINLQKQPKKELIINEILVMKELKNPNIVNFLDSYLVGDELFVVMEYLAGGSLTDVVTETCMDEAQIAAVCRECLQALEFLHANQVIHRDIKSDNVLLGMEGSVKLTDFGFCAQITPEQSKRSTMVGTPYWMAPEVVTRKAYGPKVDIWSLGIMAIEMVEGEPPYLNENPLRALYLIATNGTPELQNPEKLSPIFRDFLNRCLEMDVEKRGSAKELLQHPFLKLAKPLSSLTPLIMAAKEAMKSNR
Assay: In vitro PAK inhibition assay (Z'-LYTE, SelectScreen), PAK2
Type: biochemical
Conditions: read-out: PAK2 IC50
Procedure: as §1
The 2×PAK2 (PAK65)/Ser/Thr 20 mixture is prepared in 50 mM HEPES pH 7.5, 0.01% BRIJ-35, 10 mM MgCl2, 1 mM EGTA. The final 10 μL Kinase Reaction consists of 0.29-6 ng PAK2 (PAK65) and 2 μM Ser/Thr 20 in 50 mM HEPES pH 7.5, 0.01% BRIJ-35, 10 mM MgCl2, 1 mM EGTA.
as §2, §3, §4, §5, §6, §7, §8

Row | SMILES | IC50
28 | O=c1c(-c2ccc(-c3ccncn3)cc2Cl)cc2cnc(NC3CCOCC3)nc2n1Cc1ccccc1C(F)(F)F [Example 23] | 50 to 500 nM
29 | CCn1c(=O)c(-c2ccc(-c3cncc(C)n3)cc2Cl)cc2cnc(N[C@H]3CCCNC3=O)nc21 [Example 69] | > 5000 nM
30 | CCn1c(=O)c(-c2ccc(-c3cccnc3F)cc2Cl)cc2cnc(N[C@@H]3CCOC3)nc21 [Example 40] | 50 to 500 nM
31 | Cc1cncc(-c2ccc(-c3cc4cnc(N[C@H]5CCOC5)nc4n([C@H]4CC[C@H](N)CC4)c3=O)c(Cl)c2)n1 [Example 110] | < 50 nM
32 | CCn1c(=O)c(-c2ccc(-c3nccnc3C)cc2Cl)cc2cnc(NC3CCN(C(C)=O)CC3)nc21 [Example 80] | 50 to 500 nM
33 | CCn1c(=O)c(-c2ccc(-c3cncc(C)n3)cc2Cl)cc2cnc(NCCCOCCCN(C)C)nc21 [Example 130] | 50 to 500 nM
34 | CCn1c(=O)c(-c2ccc(-c3nccnc3C)cc2Cl)cc2cnc(NC3CCCNC3)nc21 (stereo not drawn) [Example 82] | 50 to 500 nM
35 | COCCn1c(=O)c(-c2ccc(-c3cnccn3)cc2Cl)cc2cnc(NC3CCOC3)nc21 (stereo not drawn) [Example 53] | 50 to 500 nM
36 | CCn1c(=O)c(-c2ccc(-c3nccnc3C)cc2Cl)cc2cnc(NC3CCN(C)CC3)nc21 [Example 5] | 500 to 5000 nM
